{"source": "patent US10201532B2", "about": "“Compounds and their use” (ALLECRA THERAPEUTICS GMBH, priority 2010, dated 2019)", "key": {"[1]": {"system": "K. pneumoniae ATCC BAA-1705 (KPC2)", "assay": "Disk zone of inhibition, antibiotic + Compound-1 on same disk (Methodology 2)", "type": "cell-based, Klebsiella pneumoniae", "text": "(§1) In this experiment, Compound-1 is used as a diagnostic reagent for the detection of β-lactamases belonging to the families KPC & ESBL (e.g., SHV18) producing Enterobacteriaceae. A simple set of absorbent paper disks impregnated with antibiotic on agar medium is used for the detection.\n(§2) • 0.5 McFarland of the test organism was inoculated at 1:10 dilution on Muller • Hinton Agar plates • Test organisms: Klebsiella pneumoniae (K.p) ATCC BAA-1705, Klebsiella pneumoniae ATCC 700603, Escherichia coli (E.c) Ecoli233 • Carbapenem (e.g., Imipenem [IPM] 10 μg) and cephalosporin (e.g., Ceftazidime [CAZ] 30 μg) paper disks (7 mm) were placed on the inoculated agar plates • Compound-1 (60 μg) disk was placed at a distance of 7 & 10 mm from the carbapenem and cephalosporin disks. • The presence of expressed carbapenemases or ESBLs was measured as the expansion of Imipenem or Ceftazidime's inhibition zones due to synergy in the presence of Compound-1.\n(§3) The methodology remains the same as Methodology 1 except the following change • Compound-1 (60 μg) was added on the same disk in combination with a carbapenem (e.g., Imipenem 10 μg) or cephalosporin (e.g., Ceftazidime 30 μg) and placed on the inoculated agar plate. • The presence of the expressed carbapenemases or ESBLs was measured as an increase in Imipenem or Ceftazidime's zone diameter in combination with Compound-1 compared to antibiotic alone. Results"}, "[2]": {"system": "E. coli Ecoli233 (KPC3)", "assay": "Disk zone of inhibition, antibiotic + Compound-1 on same disk (Methodology 2)", "type": "cell-based, Escherichia coli", "text": "as §1, §2, §3"}, "[3]": {"system": "K. pneumoniae ATCC 700603 (SHV18)", "assay": "Disk zone of inhibition, antibiotic + Compound-1 on same disk (Methodology 2)", "type": "cell-based, Klebsiella pneumoniae", "text": "as §1\nas §2, with “Compound-1. Results:” for “Compound-1.”\nas §3"}, "[4]": {"system": "KPC/ESBL producing Enterobacteriaceae", "assay": "Double Disk Synergy Test (Methodology 1)", "type": "cell-based, Klebsiella pneumoniae, Escherichia coli", "conditions": "Compound-1 60 μg disk at 7 & 10 mm from antibiotic disks; FIG. 1", "text": "as §1, §2"}, "[5]": {"system": "E. coli BAA-198 (TEM-26)", "assay": "MIC of Piperacillin with inhibitor, ESBL isolates", "type": "cell-based, Escherichia coli"}, "[6]": {"system": "P. mirabilis BAA-663 (TEM-89)", "assay": "MIC of Piperacillin with inhibitor, ESBL isolates", "type": "cell-based"}, "[7]": {"system": "E. coli BAA-199 (SHV-3)", "assay": "MIC of Piperacillin with inhibitor, ESBL isolates", "type": "cell-based, Escherichia coli"}, "[8]": {"system": "E. coli BAA-200 (SHV-4)", "assay": "MIC of Piperacillin with inhibitor, ESBL isolates", "type": "cell-based, Escherichia coli"}, "[9]": {"system": "K. pneumoniae 700603 (SHV-18)", "assay": "MIC of Piperacillin with inhibitor, ESBL isolates", "type": "cell-based, Klebsiella pneumoniae"}, "[10]": {"conditions": "Ceftazidime 30 μg + Compound-1 60 μg on same disk"}, "[11]": {"conditions": "Imipenem 10 μg + Compound-1 60 μg on same disk"}}}
{"smiles": "C[n+]1ccn(C[C@@]2(C)[C@H](C(=O)[O-])N3C(=O)C[C@H]3S2(=O)=O)n1", "note": "[Compound-1, 1-{[(2S,3S,5R)-2-Carboxy-3-methyl-4,4,7-trioxo-4-thia-1-azabicyclo[3.2.0]hept-3-yl]methyl}-3-methyl-1H-1,2,3-triazol-3-ium]", "values": [{"measurement": "ZOI of CAZ + Compound-1", "setting": "[1]; [10]", "value": 18.5, "unit": "mm"}, {"measurement": "ZOI of IPM + Compound-1", "setting": "[1]; [11]", "value": 20, "unit": "mm"}, {"measurement": "ZOI of CAZ + Compound-1", "setting": "[2]; [10]", "value": 22.5, "unit": "mm"}, {"measurement": "ZOI of IPM + Compound-1", "setting": "[2]; [11]", "value": 20, "unit": "mm"}, {"measurement": "ZOI of CAZ + Compound-1", "setting": "[3]; [10]", "value": 23, "unit": "mm"}, {"measurement": "ZOI of IPM + Compound-1", "setting": "[3]; [11]", "value": 25, "unit": "mm"}, {"measurement": "Synergy: increase of Imipenem or Ceftazidime zone adjacent to Compound-1 disk", "setting": "[4]", "value": "Synergy was observed"}]}
{"smiles": "C[C@]1(Cn2ccnn2)[C@H](C(=O)O)N2C(=O)C[C@H]2S1(=O)=O", "note": "[Tazobactam]", "values": [{"measurement": "MIC of Piperacillin with inhibitor", "setting": "[5]; inhibitor at 1 μg/mL", "value": 4, "unit": "µg/mL"}, {"measurement": "MIC of Piperacillin with inhibitor", "setting": "[5]; inhibitor at 2 μg/mL", "value": 4, "unit": "µg/mL"}, {"measurement": "MIC of Piperacillin with inhibitor", "setting": "[5]; inhibitor at 4 μg/mL", "value": 4, "unit": "µg/mL"}, {"measurement": "MIC of Piperacillin with inhibitor", "setting": "[6]; inhibitor at 1 μg/mL", "value": 8, "unit": "µg/mL"}, {"measurement": "MIC of Piperacillin with inhibitor", "setting": "[6]; inhibitor at 2 μg/mL", "value": 8, "unit": "µg/mL"}, {"measurement": "MIC of Piperacillin with inhibitor", "setting": "[6]; inhibitor at 4 μg/mL", "value": 4, "unit": "µg/mL"}, {"measurement": "MIC of Piperacillin with inhibitor", "setting": "[7]; inhibitor at 1 μg/mL", "value": ">128", "unit": "µg/mL"}, {"measurement": "MIC of Piperacillin with inhibitor", "setting": "[7]; inhibitor at 2 μg/mL", "value": ">128", "unit": "µg/mL"}, {"measurement": "MIC of Piperacillin with inhibitor", "setting": "[7]; inhibitor at 4 μg/mL", "value": ">128", "unit": "µg/mL"}, {"measurement": "MIC of Piperacillin with inhibitor", "setting": "[8]; inhibitor at 1 μg/mL", "value": ">128", "unit": "µg/mL"}, {"measurement": "MIC of Piperacillin with inhibitor", "setting": "[8]; inhibitor at 2 μg/mL", "value": ">128", "unit": "µg/mL"}, {"measurement": "MIC of Piperacillin with inhibitor", "setting": "[8]; inhibitor at 4 μg/mL", "value": 4, "unit": "µg/mL"}, {"measurement": "MIC of Piperacillin with inhibitor", "setting": "[9]; inhibitor at 1 μg/mL", "value": 16, "unit": "µg/mL"}, {"measurement": "MIC of Piperacillin with inhibitor", "setting": "[9]; inhibitor at 2 μg/mL", "value": 16, "unit": "µg/mL"}, {"measurement": "MIC of Piperacillin with inhibitor", "setting": "[9]; inhibitor at 4 μg/mL", "value": 16, "unit": "µg/mL"}]}
